Measurements from publication PMC10825183 (Nature Communications, 2024).
Several values for one entry are separate records, joined by “and”; a condition that tells them apart may be missing. Equal values may be shown once.

Assays:
rbHCN4 ΔE (1-733) = biological target: T1, rbHCN4 ΔE (1-733) (Oryctolagus cuniculus, UniProt Q9TV66); test: Whole-cell patch clamp in HEK293T cells, HCN4 ΔE; assay type: cell-based, rabbit
T1 construct: rbHCN4 ΔE (1-733); expressed in transfected cells; host or cells: HEK293T
T1 sequence (Q9TV66 1-733): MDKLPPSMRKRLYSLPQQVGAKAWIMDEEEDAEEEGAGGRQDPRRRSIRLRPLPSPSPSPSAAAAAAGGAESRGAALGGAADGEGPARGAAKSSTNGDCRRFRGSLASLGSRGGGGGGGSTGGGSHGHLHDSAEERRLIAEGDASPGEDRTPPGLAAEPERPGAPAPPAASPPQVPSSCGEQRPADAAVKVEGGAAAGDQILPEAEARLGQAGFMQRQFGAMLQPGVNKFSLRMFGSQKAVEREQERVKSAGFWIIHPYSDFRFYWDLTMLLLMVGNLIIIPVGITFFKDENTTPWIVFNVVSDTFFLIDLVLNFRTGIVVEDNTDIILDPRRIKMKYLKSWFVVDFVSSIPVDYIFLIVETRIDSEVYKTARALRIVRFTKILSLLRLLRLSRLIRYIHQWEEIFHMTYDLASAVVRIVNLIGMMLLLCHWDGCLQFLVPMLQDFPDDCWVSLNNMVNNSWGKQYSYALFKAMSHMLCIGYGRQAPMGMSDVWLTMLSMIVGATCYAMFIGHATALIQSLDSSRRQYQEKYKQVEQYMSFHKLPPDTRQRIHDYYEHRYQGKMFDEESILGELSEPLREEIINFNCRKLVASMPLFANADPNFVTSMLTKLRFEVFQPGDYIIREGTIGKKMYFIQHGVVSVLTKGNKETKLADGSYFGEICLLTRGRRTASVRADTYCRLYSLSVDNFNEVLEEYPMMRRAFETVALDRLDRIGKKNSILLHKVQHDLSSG

hHCN2 CNBD D698A = hHCN2 CNBD D698A (Homo sapiens, UniProt Q9UL51, D698A); test: biochemical
human HCN2 CNBD ΔDE’ = biological target: T2, human HCN2 CNBD ΔDE’ (Homo sapiens, UniProt Q9UL51); test: Isothermal titration calorimetry (ITC), CNBD ΔDE’
T2 sequence (Q9UL51 521-672): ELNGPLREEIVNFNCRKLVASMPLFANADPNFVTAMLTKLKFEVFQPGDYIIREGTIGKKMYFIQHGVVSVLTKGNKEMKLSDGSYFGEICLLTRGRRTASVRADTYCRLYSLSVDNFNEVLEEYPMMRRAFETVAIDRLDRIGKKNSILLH

human HCN2 CNBD ΔDE = biological target: T3, human HCN2 CNBD ΔDE (Homo sapiens, UniProt Q9UL51); test: Isothermal titration calorimetry (ITC), CNBD ΔDE; conditions: cAMP titrated into 20 µM CNBD, 25 °C, mean ± SEM, n = 3
T3 sequence (Q9UL51 521-667): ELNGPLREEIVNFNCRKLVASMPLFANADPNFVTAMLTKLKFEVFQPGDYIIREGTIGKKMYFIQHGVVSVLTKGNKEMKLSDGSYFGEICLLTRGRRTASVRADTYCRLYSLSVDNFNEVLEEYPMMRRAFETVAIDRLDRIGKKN

rbHCN4 ΔC-term (1-758) = rbHCN4 ΔC-term (1-758) (Oryctolagus cuniculus, UniProt Q9TV66); conditions: mean ± SEM
human HCN2 CNBD ΔE = biological target: T4, human HCN2 CNBD ΔE (Homo sapiens, UniProt Q9UL51); test: Isothermal titration calorimetry (ITC), CNBD ΔE; assay type: binding; conditions: mean ± SEM, n = 3
T4 sequence (Q9UL51 521-681): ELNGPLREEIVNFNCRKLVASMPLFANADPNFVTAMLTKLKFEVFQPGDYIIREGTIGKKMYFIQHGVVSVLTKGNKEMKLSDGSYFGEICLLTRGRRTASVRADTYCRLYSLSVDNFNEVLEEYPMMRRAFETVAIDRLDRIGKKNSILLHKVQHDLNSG

hHCN2 CNBD D698A, sequence (Q9UL51 521-706 D698A): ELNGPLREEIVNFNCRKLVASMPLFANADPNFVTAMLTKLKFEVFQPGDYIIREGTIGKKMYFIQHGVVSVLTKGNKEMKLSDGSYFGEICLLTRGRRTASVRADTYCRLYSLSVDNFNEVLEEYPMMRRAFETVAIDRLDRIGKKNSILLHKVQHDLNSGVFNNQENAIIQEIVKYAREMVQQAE
rbHCN4 ΔC-term (1-758), sequence (Q9TV66 1-758, stated change not applied): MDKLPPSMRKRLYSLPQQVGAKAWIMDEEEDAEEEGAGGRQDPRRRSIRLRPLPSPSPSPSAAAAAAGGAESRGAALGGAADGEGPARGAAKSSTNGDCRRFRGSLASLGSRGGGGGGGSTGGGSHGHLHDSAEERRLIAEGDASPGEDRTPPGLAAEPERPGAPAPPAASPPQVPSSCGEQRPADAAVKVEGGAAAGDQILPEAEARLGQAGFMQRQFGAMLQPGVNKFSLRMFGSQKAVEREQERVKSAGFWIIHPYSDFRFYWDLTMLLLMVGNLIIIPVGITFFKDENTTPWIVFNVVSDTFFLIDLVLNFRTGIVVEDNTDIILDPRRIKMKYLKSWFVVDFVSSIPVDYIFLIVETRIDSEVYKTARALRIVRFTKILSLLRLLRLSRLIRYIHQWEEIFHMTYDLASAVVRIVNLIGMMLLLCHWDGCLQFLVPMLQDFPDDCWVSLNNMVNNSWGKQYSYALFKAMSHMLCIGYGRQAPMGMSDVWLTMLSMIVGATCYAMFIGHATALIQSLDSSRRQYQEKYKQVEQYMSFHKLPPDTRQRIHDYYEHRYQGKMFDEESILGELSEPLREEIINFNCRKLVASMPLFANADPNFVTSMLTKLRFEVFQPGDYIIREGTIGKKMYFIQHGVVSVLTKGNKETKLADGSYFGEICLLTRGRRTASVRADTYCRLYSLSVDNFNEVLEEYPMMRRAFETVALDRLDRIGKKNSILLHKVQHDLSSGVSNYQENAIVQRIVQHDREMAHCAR

`Nc1ncnc2c1ncn2[C@@H]1O[C@@H]2COP(=O)(O)O[C@H]2[C@H]1O` [cAMP, Adenosine 3′,5′-cyclic monophosphate] was tested, and the “V1/2 with cAMP” value (rbHCN4 ΔE (1-733); 5 µM cAMP in pipette, mean ± SEM) was -97.2 ± 0.6 mV, the “k (inverse slope factor) with cAMP” value (rbHCN4 ΔE (1-733); 5 µM cAMP, mean ± SEM) was 9.1 ± 1.2 mV and the “V1/2 + cAMP” value (rbHCN4 ΔE (1-733); 60 µM cAMP in pipette, mean ± SEM) was -81.1 ± 0.8 mV. For the same compound, the “k + cAMP” value (rbHCN4 ΔE (1-733); 60 µM cAMP, mean ± SEM) was 9.8 ± 0.8 mV, the “Hill coefficient (nH)” value (rbHCN4 ΔE (1-733); Hill fit of shift in V1/2 vs cAMP concentration) was 0.9 and the Kd (hHCN2 CNBD D698A; KD of individual experiments (source data Fig. 4e), cAMP titrant, unit inferred) was 1.7 µM and 1.6 µM and 1.3 µM. For the same compound, the Kd (hHCN2 CNBD D698A; KD, cAMP titrated into 20 µM CNBD, 25 °C, mean ± SEM, n = 3) was 1.5 ± 0.1 µM, the Kd (hHCN2 CNBD D698A; KD, representative sample (Fig. 4d), cAMP titrant, single ITC experiment) was 1 µM and the Kd (human HCN2 CNBD ΔDE’; cAMP titrated into 20 µM CNBD, 25 °C, mean ± SEM, n = 3) was 1.2 ± 0.03 µM. The Kd (human HCN2 CNBD ΔDE’; representative sample (Fig. 2d), cAMP titrant, single ITC experiment) was 1.2 µM, the “stoichiometry (N)” value (human HCN2 CNBD ΔDE’; cAMP titrant, mean ± SEM, n = 3) was 0.8 ± 0.1 and the Kd (human HCN2 CNBD ΔDE) was 9.5 ± 0.7 µM. For the same compound, the “V1/2 with cAMP” value (rbHCN4 ΔC-term (1-758); 1 µM cAMP in pipette) was -88.9 ± 1.5 mV, the “k (inverse slope factor) with cAMP” value (rbHCN4 ΔC-term (1-758); 1 µM cAMP) was 9.6 ± 0.5 mV and the Kd (human HCN2 CNBD ΔE; KD, cAMP titrated into 20 µM CNBD, 25 °C) was 1.2 ± 0.1 µM. For the same compound, the “stoichiometry (N)” value (human HCN2 CNBD ΔE; cAMP titrant) was 1.0 ± 0.1.
